# How the values were obtained:
# [1] = Dispersibility evaluation: transmission through PVDF 0.45 μm filter in pH 4.5 buffer, measured by HPLC; type: physicochemical; settings: 38° C.
# Procedure: Confirmation Experiment by Difference in Particle Size and Concentration in Weakly Acidic Solvent of Metal Phase Transformation Compound and Peptide (PalGHK)
# PVDF 0.45 μm filter is used
# Measurement is performed using HPLC with stirring for 24 hours.
# Temperature conditions similar to the temperature inside the body (38° C.) is maintained
# The solvent is the same as the pH 4.5 buffer, and experiment is performed at 500 or 1000 ppm based on the peptide content of the sample raw material.
# Concentration is calculated based on the peptide content (approximately 71%) in the metal compound.
# Concentration is calculated based on the peptide content (about 83%) in the peptide (palGHK).
# [2] = Particle size by DLS (Zetasizer Nano ZS90); type: physicochemical; settings: dispersant water, 25° C.
# Procedure: Instrument: Zetasizer Nano ZS90
# The particle size of the powder was measured by Zetasizer of Malvern Panalytical Ltd. (UK) using […], and the particle size was measured after dispersing the sample in tertiary distilled water using the model name NANO ZS ZS90.
substance,measurement,setting,value
palmitoyl-GHK [palGHK],dispersibility (filter transmission),"[1]; 500 ppm based on peptide content, time 0 hr",0%
same,dispersibility (filter transmission),"[1]; 500 ppm based on peptide content, time 2 hr",21.3%
same,dispersibility (filter transmission),"[1]; 500 ppm based on peptide content, time 4 hr",27.4%
same,dispersibility (filter transmission),"[1]; 500 ppm based on peptide content, time 6 hr",37.6%
same,dispersibility (filter transmission),"[1]; 500 ppm based on peptide content, time 8 hr",39.8%
same,dispersibility (filter transmission),"[1]; 500 ppm based on peptide content, time 10 hr",37.8%
same,dispersibility (filter transmission),"[1]; 500 ppm based on peptide content, time 12 hr",35.6%
same,dispersibility (filter transmission),"[1]; 500 ppm based on peptide content, time 12 hr, listed as peptide",about 35%
same,dispersibility (filter transmission),"[1]; 1000 ppm based on peptide content, time 0 hr",0%
same,dispersibility (filter transmission),"[1]; 1000 ppm based on peptide content, time 2 hr",18.7%
same,dispersibility (filter transmission),"[1]; 1000 ppm based on peptide content, time 4 hr",27.8%
same,dispersibility (filter transmission),"[1]; 1000 ppm based on peptide content, time 6 hr",33.2%
same,dispersibility (filter transmission),"[1]; 1000 ppm based on peptide content, time 8 hr",42.9%
same,dispersibility (filter transmission),"[1]; 1000 ppm based on peptide content, time 10 hr",47.8%
same,dispersibility (filter transmission),"[1]; 1000 ppm based on peptide content, time 12 hr",47.8%
same,dispersibility (filter transmission),"[1]; 1000 ppm based on peptide content, time 12 hr, listed as peptide",about 47%
same,average size (DLS) of transmitted particles,[2]; 500 ppm,13.09 nm
same,average size (DLS) of transmitted particles,[2]; 1000 ppm,12.18 nm

# Source: US11396453B2, “Metal compound having phase transformation and method of preparing the same” (WEBIOTREE CO., LTD, priority 2020, dated 2022)
